The values below come from patent publication US20200069648A1, “HALOALLYLAMINE PYRAZOLE DERIVATIVE INHIBITORS OF LYSYL OXIDASES AND USES THEREOF” (Pharmaxis Ltd., priority 2017, published 2020).

Where a name gives a salt, the structure may show the parent alone.

The target in one experiment is T1, Recombinant human MAO-B (Homo sapiens, UniProt P27338).
T1 construct: purchased Sigma Aldrich
T1 sequence (P27338 1-520): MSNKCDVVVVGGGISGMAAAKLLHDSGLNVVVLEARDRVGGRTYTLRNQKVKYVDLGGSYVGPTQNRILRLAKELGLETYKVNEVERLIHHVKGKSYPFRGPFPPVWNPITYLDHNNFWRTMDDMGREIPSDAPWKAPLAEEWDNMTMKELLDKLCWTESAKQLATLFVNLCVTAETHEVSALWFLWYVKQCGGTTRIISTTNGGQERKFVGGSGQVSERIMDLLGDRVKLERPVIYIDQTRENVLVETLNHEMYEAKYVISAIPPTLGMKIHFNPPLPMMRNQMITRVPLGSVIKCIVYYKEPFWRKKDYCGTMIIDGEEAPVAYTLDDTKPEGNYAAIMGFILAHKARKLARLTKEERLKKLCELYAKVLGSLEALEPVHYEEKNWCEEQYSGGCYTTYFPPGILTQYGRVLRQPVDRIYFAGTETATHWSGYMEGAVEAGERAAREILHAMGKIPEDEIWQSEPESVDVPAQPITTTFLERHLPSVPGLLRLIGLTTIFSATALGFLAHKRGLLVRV
Nature of the experiment: Human recombinant MAO-B inhibition. It counts as biochemical. The note with it: benzylamine 100 μM. The method, then:
Method to Determine the Ability of Compounds of Formula I to Inhibit Human Recombinant MAO-B
The specificity of the compounds of this invention was tested by determining their ability to inhibit MAO-B activities in vitro. Recombinant human MAO-B (0.06 mg/mL; Sigma Aldrich) was used as source of MAO-B enzyme activities. The assay was performed in a similar way as for human SSAO/VAP-1 (Example 46) except, the substrate benzylamine was used at 100 μM.

For a further experiment, the target named is T2, Human LOXL2 (Homo sapiens, UniProt Q9Y4K0).
T2 sequence (Q9Y4K0 26-774): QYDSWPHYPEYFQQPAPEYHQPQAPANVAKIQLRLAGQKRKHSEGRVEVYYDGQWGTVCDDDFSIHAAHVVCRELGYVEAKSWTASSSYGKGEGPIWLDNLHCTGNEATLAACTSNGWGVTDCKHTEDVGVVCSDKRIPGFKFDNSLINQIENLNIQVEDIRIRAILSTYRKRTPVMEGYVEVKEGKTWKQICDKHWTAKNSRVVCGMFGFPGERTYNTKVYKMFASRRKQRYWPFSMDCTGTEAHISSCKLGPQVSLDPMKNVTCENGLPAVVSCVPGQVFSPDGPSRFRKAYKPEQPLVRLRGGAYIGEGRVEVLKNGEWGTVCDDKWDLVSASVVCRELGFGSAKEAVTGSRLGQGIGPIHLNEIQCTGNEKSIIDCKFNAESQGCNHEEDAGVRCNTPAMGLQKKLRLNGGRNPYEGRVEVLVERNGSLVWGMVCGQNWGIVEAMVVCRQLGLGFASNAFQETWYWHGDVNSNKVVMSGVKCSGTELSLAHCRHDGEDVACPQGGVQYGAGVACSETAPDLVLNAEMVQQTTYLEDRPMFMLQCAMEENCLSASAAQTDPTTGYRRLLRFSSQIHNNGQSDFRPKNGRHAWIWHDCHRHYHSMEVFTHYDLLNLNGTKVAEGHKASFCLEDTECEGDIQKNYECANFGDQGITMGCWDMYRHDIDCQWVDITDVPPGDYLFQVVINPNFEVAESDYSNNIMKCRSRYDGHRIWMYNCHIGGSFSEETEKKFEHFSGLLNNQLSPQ
The experiment in a line: LOXL2 amine oxidase inhibition, peroxidase-coupled Amplex Red assay. The experiment is classed as biochemical. The note with it: 30 min preincubation at 37° C., putrescine substrate. In outline:
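Enzyme preincubated 30 min at 37 °C with compound (11-point curve) in 1.2 M urea, 50 mM borate pH 8.2 plus 1 μM mofegiline and 0.5 mM pargyline; putrescine at twice KM (10 mM for LOXL2), Amplex Red and HRP added. Fluorescence (565/590 nm) read every 2.5 min for 30 min; IC50 from kinetic slopes.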

The IC50 is the concentration needed to halve the response being measured. As for `Cc1nn(C/C(F)=C/CN)c(C)c1Cc1ccc(S(=O)(=O)N(C)C)cc1` [Compound 2, (Z)-4-((1-(4-amino-2-fluorobut-2-en-1-yl)-3,5-dimethyl-1H-pyrazol-4-yl)methyl)-N,N-dimethylbenzenesulfonamide hydrochloride], the IC50 on Recombinant human MAO-B was above 30 µM; against Human LOXL2 it was below 1 µM.

As for `Cc1nn(Cc2ccc(S(C)(=O)=O)c(Cl)c2)c(C)c1C/C(F)=C/CN` [Compound 24, (Z)-4-(1-(3-chloro-4-(methylsulfonyl)benzyl)-3,5-dimethyl-1H-pyrazol-4-yl)-3-fluorobut-2-en-1-amine hydrochloride], the results for the IC50 at Recombinant human MAO-B and on Human LOXL2 were above 30 µM and below 1 µM, respectively. On to `CN(C)S(=O)(=O)c1ccc(-c2cnn(C/C(F)=C/CN)c2)cc1` [Compound 1, (Z)-4-(1-(4-amino-2-fluorobut-2-en-1-yl)-1H-pyrazol-4-yl)-N,N-dimethyl benzenesulfonamide hydrochloride], for which the IC50 was above 10 µM at Recombinant human MAO-B and below 1 µM against Human LOXL2. Taken in the same sequence, the figures for `Cc1c(Cc2ccc(S(=O)(=O)N(C)C)cc2)c(C(=O)O)nn1C/C(F)=C/CN` [Compound 31, (Z)-1-(4-amino-2-fluorobut-2-enyl)-4-(4-(N,N-dimethylsulfamoyl)benzyl)-5-methyl-1H-pyrazole-3-carboxylic acid hydrochloride] were above 30 µM and below 1 µM.

`CCOC(=O)c1c(Cc2ccc(S(=O)(=O)N(C)C)cc2)c(C)nn1C/C(F)=C/CN` [Compound 27, (Z)-ethyl 1-(4-amino-2-fluorobut-2-enyl)-4-(4-(N,N-dimethylsulfamoyl)benzyl)-3-methyl-1H-pyrazole-5-carboxylate hydrochloride]: the IC50 was above 30 µM on Recombinant human MAO-B and below 1 µM against Human LOXL2. `Cc1nn(C/C(F)=C/CN)c(C(=O)N(C)C)c1Cc1ccc(S(=O)(=O)N(C)C)c(Cl)c1` [Compound 61, (Z)-1-(4-amino-2-fluorobut-2-en-1-yl)-4-(3-chloro-4-(N,N-dimethylsulfamoyl)benzyl)-N,N,3-trimethyl-1H-pyrazole-5-carboxamide hydrochloride] yielded a concentration for half-maximal inhibition (IC50) at Human LOXL2 below 1 µM. As to `Cc1nn(C/C(F)=C/CN)c(C)c1Cc1ccc(S(=O)(=O)N2CCOCC2)cc1` [Compound 6, (Z)-4-(3,5-dimethyl-4-(4-(morpholinosulfonyl)benzyl)-1H-pyrazol-1-yl)-3-fluorobut-2-en-1-amine hydrochloride], the IC50 is above 30 µM on Recombinant human MAO-B and below 1 µM at Human LOXL2. Take `CNS(=O)(=O)c1ccc(Cn2nc(C)c(C/C(F)=C/CN)c2C)cc1Cl` [Compound 22, (Z)-4-((4-(4-amino-2-fluorobut-2-en-1-yl)-3,5-dimethyl-1H-pyrazol-1-yl)methyl)-2-chloro-N-methylbenzenesulfonamide hydrochloride]: the IC50 at Recombinant human MAO-B is above 30 µM; at Human LOXL2, below 1 µM.

Regarding `Cc1nn(C/C(F)=C/CN)c(C)c1Cc1ccc(S(C)(=O)=O)cc1` [Compound 4, (Z)-4-(3,5-dimethyl-4-(4-(methylsulfonyl)benzyl)-1H-pyrazol-1-yl)-3-fluorobut-2-en-1-amine hydrochloride], the figures for the IC50 on Recombinant human MAO-B and against Human LOXL2 were above 30 µM and below 1 µM, respectively. The matching figures for `Cc1nn(C/C(F)=C/CN)c(C)c1Cc1ccc(S(=O)(=O)NC(C)C)cc1` [Compound 11, (Z)-4-((1-(4-amino-2-fluorobut-2-en-1-yl)-3,5-dimethyl-1H-pyrazol-4-yl)methyl)-N-isopropyl benzenesulfonamide hydrochloride]: above 30 µM and below 1 µM.

For the compound `Cc1nn(Cc2ccc(S(=O)(=O)N(C)C)cc2)c(C)c1C/C(F)=C/CN` [Compound 10, (Z)-4-((4-(4-amino-2-fluorobut-2-en-1-yl)-3,5-dimethyl-1H-pyrazol-1-yl)methyl)-N,N-dimethylbenzenesulfonamide hydrochloride], the 50% inhibitory concentration (IC50) on Recombinant human MAO-B was above 10 µM; on Human LOXL2, below 1 µM. For `CNS(=O)(=O)c1ccc(Cn2nc(C)c(C/C(F)=C/CN)c2C)c(Cl)c1` [Compound 20, (Z)-4-((4-(4-amino-2-fluorobut-2-en-1-yl)-3,5-dimethyl-1H-pyrazol-1-yl)methyl)-3-chloro-N-methylbenzenesulfonamide hydrochloride], the IC50 was above 30 µM on Recombinant human MAO-B and below 1 µM at Human LOXL2. On to `Cc1nn(C/C(F)=C/CN)c(C(=O)NC(C)(C)C)c1Cc1ccc(S(=O)(=O)N(C)C)c(Cl)c1` [Compound 62, (Z)-1-(4-amino-2-fluorobut-2-en-1-yl)-N-(tert-butyl)-4-(3-chloro-4-(N,N-dimethylsulfamoyl)benzyl)-3-methyl-1H-pyrazole-5-carboxamide hydrochloride], for which, on Human LOXL2, the IC50 was below 1 µM. As to `CC(C)c1nn(C/C(F)=C/CN)c(C(C)C)c1Cc1ccc(S(=O)(=O)N(C)C)c(Cl)c1` [Compound 60, (Z)-4-((1-(4-amino-2-fluorobut-2-en-1-yl)-3,5-diisopropyl-1H-pyrazol-4-yl)methyl)-2-chloro-N,N-dimethylbenzenesulfonamide hydrochloride], on Human LOXL2, the IC50 was below 1 µM. In the case of `Cc1nn(Cc2ccc(S(C)(=O)=O)cc2Cl)c(C)c1C/C(F)=C/CN` [Compound 21, (Z)-4-(1-(2-chloro-4-(methylsulfonyl)benzyl)-3,5-dimethyl-1H-pyrazol-4-yl)-3-fluorobut-2-en-1-amine hydrochloride], the IC50 at Recombinant human MAO-B is above 30 µM; at Human LOXL2, below 1 µM. Turning to `N#CCCN` [BAPN, β-aminopropionitrile, reference compound], the IC50 was above 100 µM at Recombinant human MAO-B and below 1 µM against Human LOXL2. The matching figures for `Cc1nn(C/C(F)=C/CN)c(C)c1Cc1ccc(S(=O)(=O)N(C)C)c2ccccc12` [Compound 9, (Z)-4-((1-(4-amino-2-fluorobut-2-en-1-yl)-3,5-dimethyl-1H-pyrazol-4-yl)methyl)-N,N-dimethyl naphthalene-1-sulfonamide hydrochloride]: above 10 µM and below 1 µM.

On to `Cc1nn(C/C(F)=C/CN)c(C)c1Cc1ccc(S(=O)(=O)N(C)C)cc1Cl` [Compound 3, (Z)-4-((1-(4-amino-2-fluorobut-2-en-1-yl)-3,5-dimethyl-1H-pyrazol-4-yl)methyl)-3-chloro-N,N-dimethylbenzenesulfonamide hydrochloride], for which the IC50 on Recombinant human MAO-B is above 30 µM; against Human LOXL2 it was below 1 µM. Taken in the same sequence, the figures for `CCc1nn(C/C(F)=C/CN)c(CC)c1Cc1ccc(S(=O)(=O)N(C)C)cc1` [Compound 13, (Z)-4-((1-(4-amino-2-fluorobut-2-en-1-yl)-3,5-diethyl-1H-pyrazol-4-yl)methyl)-N,N-dimethyl benzenesulfonamide hydrochloride] were above 30 µM and below 1 µM.

`Cc1nn(C/C(F)=C/CN)c(C)c1Cc1ccc(S(=O)(=O)N2CCCC2)cc1` [Compound 7, (Z)-4-(3,5-dimethyl-4-(4-(pyrrolidin-1-ylsulfonyl)benzyl)-1H-pyrazol-1-yl)-3-fluorobut-2-en-1-amine hydrochloride]: the IC50 at Recombinant human MAO-B was above 30 µM; against Human LOXL2 it was below 1 µM. As for `Cc1c(Cc2ccc(S(=O)(=O)N(C)C)cc2)c(C(=O)N(C)C)nn1C/C(F)=C/CN` [Compound 32, (Z)-1-(4-amino-2-fluorobut-2-enyl)-4-(4-(N,N-dimethylsulfamoyl)benzyl)-N,N,5-trimethyl-1H-pyrazole-3-carboxamide hydrochloride], the IC50 was above 30 µM on Recombinant human MAO-B and below 1 µM against Human LOXL2. Compound `CC(C)c1nn(C/C(F)=C/CN)c(C(C)O)c1Cc1ccc(S(=O)(=O)N(C)C)c(Cl)c1` (stereo not shown) [Compound 59, (Z)-4-((1-(4-amino-2-fluorobut-2-en-1-yl)-5-(1-hydroxyethyl)-3-isopropyl-1H-pyrazol-4-yl)methyl)-2-chloro-N,N-dimethylbenzenesulfonamide hydrochloride] gave an IC50 against Human LOXL2 below 1 µM.
